Blank lines part the entries; values can stand above or below the molecule they belong to.
Tests used:
NLRC4 inflammasome = NLRC4 inflammasome (Mus musculus, UniProt Q3UP24); test: Inhibition of NLRC4 inflammasome; assay type: cell-based; conditions: LPS 1 μg/mL, flagellin 1 μg/mL 6 h; 1 at 3 and 10 μM, 8 at 10 μM
AIM2 inflammasome = target: T1, AIM2 inflammasome (Mus musculus, UniProt Q91VJ1); test: Inhibition of AIM2 inflammasome; assay type: cell-based; conditions: LPS 1 μg/mL, poly(dA:dT) 4 μg/mL 4 h; 1 at 3 and 10 μM, 8 at 10 μM
T1 sequence (Q91VJ1 1-354): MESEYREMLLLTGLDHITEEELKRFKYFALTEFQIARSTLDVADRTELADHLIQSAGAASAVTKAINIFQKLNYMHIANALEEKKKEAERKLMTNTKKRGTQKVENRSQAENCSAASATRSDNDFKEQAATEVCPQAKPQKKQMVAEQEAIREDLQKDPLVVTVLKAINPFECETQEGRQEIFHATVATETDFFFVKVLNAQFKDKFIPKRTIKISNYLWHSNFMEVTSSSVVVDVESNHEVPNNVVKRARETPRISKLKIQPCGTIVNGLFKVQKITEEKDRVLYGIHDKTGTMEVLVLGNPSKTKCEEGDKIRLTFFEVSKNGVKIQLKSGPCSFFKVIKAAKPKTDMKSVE

priming by LPS (TNF-α) = test: LPS priming step, TNF-α in J774A.1 culture media by ELISA; assay type: cell-based, mouse; conditions: concentrations ≤ 3 μM
NLRP3 inflammasome [1] = target: NLRP3 inflammasome (Mus musculus, UniProt Q8R4B8); conditions: IL-1β release, LPS/ATP
[2] = earlier work of the authors; cited from earlier work
AD animal models = conditions: cited from earlier work
NLRP3 inflammasome [3] = conditions: read-out: IC50 (potency as NLRP3 inhibitor); cited from earlier work
[4] = target: human recombinant NLRP3 protein; conditions: cited from earlier work

NLRP3 inflammasome (Mus musculus, UniProt Q8R4B8), sequence (Q8R4B8 whole entry): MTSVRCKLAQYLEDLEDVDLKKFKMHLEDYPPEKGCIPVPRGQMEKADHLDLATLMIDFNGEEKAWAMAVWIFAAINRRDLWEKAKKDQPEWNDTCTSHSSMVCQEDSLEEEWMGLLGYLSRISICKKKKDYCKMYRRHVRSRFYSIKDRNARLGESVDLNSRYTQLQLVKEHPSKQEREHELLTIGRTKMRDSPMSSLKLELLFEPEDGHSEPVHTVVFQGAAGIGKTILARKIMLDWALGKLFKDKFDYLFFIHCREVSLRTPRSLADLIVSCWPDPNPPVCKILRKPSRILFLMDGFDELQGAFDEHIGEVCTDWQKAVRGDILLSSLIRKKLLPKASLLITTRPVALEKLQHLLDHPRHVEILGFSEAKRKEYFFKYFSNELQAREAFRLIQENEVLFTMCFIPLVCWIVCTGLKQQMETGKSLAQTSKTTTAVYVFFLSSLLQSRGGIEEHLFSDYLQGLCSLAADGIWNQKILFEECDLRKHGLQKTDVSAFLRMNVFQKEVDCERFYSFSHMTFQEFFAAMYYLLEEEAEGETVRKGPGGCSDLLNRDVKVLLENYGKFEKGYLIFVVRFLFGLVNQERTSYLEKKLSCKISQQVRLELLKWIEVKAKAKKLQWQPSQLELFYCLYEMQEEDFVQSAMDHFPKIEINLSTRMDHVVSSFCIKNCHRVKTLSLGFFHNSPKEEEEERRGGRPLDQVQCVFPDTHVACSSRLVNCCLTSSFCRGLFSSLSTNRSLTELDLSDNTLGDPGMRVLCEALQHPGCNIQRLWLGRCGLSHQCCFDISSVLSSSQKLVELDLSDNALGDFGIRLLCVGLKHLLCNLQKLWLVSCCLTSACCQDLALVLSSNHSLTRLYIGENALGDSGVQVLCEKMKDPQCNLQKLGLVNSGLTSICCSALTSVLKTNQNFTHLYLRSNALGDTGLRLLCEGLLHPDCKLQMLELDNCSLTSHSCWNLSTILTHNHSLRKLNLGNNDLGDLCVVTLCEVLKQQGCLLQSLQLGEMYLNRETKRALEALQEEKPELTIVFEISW
NLRC4 inflammasome, sequence (Q3UP24 whole entry): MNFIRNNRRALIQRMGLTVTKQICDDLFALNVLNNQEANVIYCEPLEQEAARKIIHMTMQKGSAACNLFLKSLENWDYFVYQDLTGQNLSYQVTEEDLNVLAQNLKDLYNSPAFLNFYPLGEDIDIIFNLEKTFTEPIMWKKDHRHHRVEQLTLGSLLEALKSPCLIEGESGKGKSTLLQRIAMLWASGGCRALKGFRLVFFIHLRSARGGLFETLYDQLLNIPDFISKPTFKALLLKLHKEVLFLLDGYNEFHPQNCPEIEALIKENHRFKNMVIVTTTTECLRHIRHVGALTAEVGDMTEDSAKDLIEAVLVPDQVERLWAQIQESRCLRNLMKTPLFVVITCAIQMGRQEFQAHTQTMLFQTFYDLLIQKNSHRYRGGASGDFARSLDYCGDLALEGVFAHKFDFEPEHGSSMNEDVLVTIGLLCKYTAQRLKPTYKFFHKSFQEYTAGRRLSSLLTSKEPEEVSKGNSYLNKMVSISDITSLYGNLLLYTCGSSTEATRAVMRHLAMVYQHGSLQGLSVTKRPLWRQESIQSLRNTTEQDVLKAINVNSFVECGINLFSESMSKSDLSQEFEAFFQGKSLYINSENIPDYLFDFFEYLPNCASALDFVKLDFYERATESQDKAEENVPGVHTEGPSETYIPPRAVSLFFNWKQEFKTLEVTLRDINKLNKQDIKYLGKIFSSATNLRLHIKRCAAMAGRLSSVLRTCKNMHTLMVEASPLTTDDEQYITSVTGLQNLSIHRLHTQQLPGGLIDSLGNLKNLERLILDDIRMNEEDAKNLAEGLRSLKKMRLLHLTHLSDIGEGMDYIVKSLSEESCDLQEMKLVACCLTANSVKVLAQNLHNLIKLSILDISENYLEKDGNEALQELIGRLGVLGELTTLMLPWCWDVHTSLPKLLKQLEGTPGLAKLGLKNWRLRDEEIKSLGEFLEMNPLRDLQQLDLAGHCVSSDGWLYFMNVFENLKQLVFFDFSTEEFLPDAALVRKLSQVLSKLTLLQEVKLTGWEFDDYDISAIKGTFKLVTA

Structure (SMILES): CCCOc1ccc(Cl)cc1Cn1cc(-c2ccccc2)nn1 [Compound 1, 1-(5-chloro-2-propoxybenzyl)-4-phenyl-1H-1,2,3-triazole]
inhibition of the NLRC4 inflammasome (NLRC4 inflammasome): only observed for the NLRC4 and AIM2 inflammasomes at higher concentrations | inhibition of the AIM2 inflammasome (AIM2 inflammasome): only observed for the NLRC4 and AIM2 inflammasomes at higher concentrations | interference with the priming by LPS (priming by LPS (TNF-α)): did not show interference

Structure (SMILES): CCCOc1ccc(Cl)cc1Cn1cc(-c2ccc(S(N)(=O)=O)cc2)nn1 [Compound 2, 4-(1-(5-chloro-2-propoxybenzyl)-1H-1,2,3-triazol-4-yl)benzenesulfonamide]
inhibitory potency compared to 1 (NLRP3 inflammasome [1]): comparable potency

Structure (SMILES): CCCOc1ccc(Cl)cc1Cn1cc(-c2ccc(C(=O)O)cc2)nn1 [Compound 7, 4-(1-(5-chloro-2-propoxybenzyl)-1H-1,2,3-triazol-4-yl)benzoic acid]
lower potency compared to 6 (NLRP3 inflammasome [1]): ~ 10 fold

Structure (SMILES): COC(=O)c1ccc(-c2cn(Cc3cc(Cl)ccc3OC)nn2)cc1 [Compound 8, Methyl 4-(1-(5-chloro-2-methoxybenzyl)-1H-1,2,3-triazol-4-yl)benzoate]
inhibition of the NLRC4 inflammasome (NLRC4 inflammasome): did not show inhibitory effects | inhibition of the AIM2 inflammasome (AIM2 inflammasome): did not show inhibitory effects

Structure (SMILES): COC(=O)c1cccc(-c2cn(Cc3cc(Cl)ccc3OC)nn2)c1 [Compound 11, Methyl 3-(1-(5-chloro-2-methoxybenzyl)-1H-1,2,3-triazol-4-yl)benzoate]
inhibitory potency compared to 8 (NLRP3 inflammasome [1]): decrease of inhibitory potency

Structure (SMILES): COc1ccc(Cl)cc1Cn1cc(-c2ccc(C(=O)O)cc2)nn1 [Compound 12, 4-(1-(5-chloro-2-methoxybenzyl)-1H-1,2,3-triazol-4-yl)benzoic acid]
inhibitory potency compared to 8 (NLRP3 inflammasome [1]): significantly less potent

Structure (SMILES): CNC(=O)c1ccc(-c2cn(Cc3cc(Cl)ccc3OC)nn2)cc1 [Compound 13, 4-(1-(5-chloro-2-methoxybenzyl)-1H-1,2,3-triazol-4-yl)-N-methylbenzamide]
inhibitory potency compared to 8 (NLRP3 inflammasome [1]): decreased inhibitory potency

Structure (SMILES): COC(=O)c1ccc(-c2cn(Cc3ccccc3)nn2)cc1 [Compound 24, Methyl 4-(1-benzyl-1H-1,2,3-triazol-4-yl)benzoate]
inhibitory potency compared to 8 (NLRP3 inflammasome [1]): ~3–7-fold decrease or complete loss of potency

Structure (SMILES): COC(=O)c1ccc(-c2cn(Cc3ccccc3OC)nn2)cc1 [Compound 25, Methyl 4-(1-(2-methoxybenzyl)-1H-1,2,3-triazol-4-yl)benzoate]
inhibitory potency compared to 8 (NLRP3 inflammasome [1]): ~3–7-fold decrease or complete loss of potency

Structure (SMILES): COC(=O)c1ccc(-c2cn(Cc3cccc(Cl)c3)nn2)cc1 [Compound 26, Methyl 4-(1-(3-chlorobenzyl)-1H-1,2,3-triazol-4-yl)benzoate]
inhibitory potency compared to 8 (NLRP3 inflammasome [1]): ~3–7-fold decrease or complete loss of potency

Structure (SMILES): CNS(=O)(=O)c1ccc(CCNC(=O)c2cc(Cl)ccc2OC)cc1 [JC124]
metabolism / metabolic stability in mouse liver microsomes [2]: relatively better metabolic stability | in vivo efficacy (AD animal models): in vivo efficacy

Structure (SMILES): C#CCNS(=O)(=O)c1ccc(CCN(Cc2cc(Cl)ccc2OCCC)C(=O)Cc2ccsc2)cc1 [YQ128]
metabolism / metabolic stability in mouse liver microsomes [2]: rapid metabolism | IC50 (NLRP3 inflammasome [3]): 300 ± 10 nM | Kd [4]: 117 nM

Next, values leading:

inhibitory potency compared to 8 (NLRP3 inflammasome [1]): decreased inhibitory potency
Structure (SMILES): COc1ccc(Cl)cc1Cn1cc(-c2ccc(C(=O)N3CCC3)cc2)nn1 [Compound 14, Azetidin-1-yl(4-(1-(5-chloro-2-methoxybenzyl)-1H-1,2,3-triazol-4-yl)phenyl)methanone]

decrease in inhibitory potency compared to 8 (NLRP3 inflammasome [1]): 3–4 fold
Structure (SMILES): COC(=O)c1ccc(-c2cn(Cc3cc(Cl)ccc3OC)nn2)c(C)c1 [Compound 15, Methyl 4-(1-(5-chloro-2-methoxybenzyl)-1H-1,2,3-triazol-4-yl)-3-methylbenzoate]

decrease in inhibitory potency compared to 8 (NLRP3 inflammasome [1]): 3–4 fold
Structure (SMILES): COC(=O)c1ccc(-c2cn(Cc3cc(Cl)ccc3OC)nn2)c(F)c1 [Compound 16, Methyl 4-(1-(5-chloro-2-methoxybenzyl)-1H-1,2,3-triazol-4-yl)-3-fluorobenzoate]

decrease in inhibitory potency compared to 8 (NLRP3 inflammasome [1]): ~ 5 fold
Structure (SMILES): COC(=O)c1ccc(-c2cn(Cc3cc(Cl)ccc3O)nn2)cc1 [Compound 27, Methyl 4-(1-(5-chloro-2-hydroxybenzyl)-1H-1,2,3-triazol-4-yl)benzoate]

inhibitory potency compared to 8 (NLRP3 inflammasome [1]): comparable potency
Structure (SMILES): COC(=O)c1ccc(-c2cn(Cc3cc(Cl)cc(OC)c3)nn2)cc1 [Compound 28, Methyl 4-(1-(3-chloro-5-methoxybenzyl)-1H-1,2,3-triazol-4-yl)benzoate]

decrease in inhibitory potency compared to 8 (NLRP3 inflammasome [1]): 2–3 fold
Structure (SMILES): COC(=O)c1ccc(-c2cn(Cc3cc(F)ccc3OC)nn2)cc1 [Compound 32, Methyl 4-(1-(5-fluoro-2-methoxybenzyl)-1H-1,2,3-triazol-4-yl)benzoate]

decrease in inhibitory potency compared to 8 (NLRP3 inflammasome [1]): 2–3 fold
Structure (SMILES): COC(=O)c1ccc(-c2cn(Cc3cc(Br)ccc3OC)nn2)cc1 [Compound 33, Methyl 4-(1-(5-bromo-2-methoxybenzyl)-1H-1,2,3-triazol-4-yl)benzoate]

inhibitory potency compared to 8 (NLRP3 inflammasome [1]): comparable potency
Structure (SMILES): COC(=O)c1ccc(-c2cn(Cc3cc(C(F)(F)F)ccc3OC)nn2)cc1 [Compound 34, Methyl 4-(1-(2-methoxy-5-(trifluoromethyl)benzyl)-1H-1,2,3-triazol-4-yl)benzoate]

Source: article PMC11002996 (Journal of medicinal chemistry, 2023)
